# Measurements as given in patent US9820977B2, “Systemic treatment of blood-sucking and blood-consuming parasites by oral administration of a parasiticidal agent” (priority 2008, dated 2017).
# Values joined by “and” are separate entries in the source; they are usually repeats but may differ in a detail not shown here. Equal entries are not always repeated.
# Assays:
# [1] = given orally to control fleas; cited from earlier work
# [2] = test system: ticks; details: given topically, imidacloprid alone; cited from earlier work
# [3] = test system: Ctenocephalides felis; experiment: Flea infestation on dogs, oral dosing, pan and comb counts; format: in vivo; details: for Mean Efficacy / 1 hour pan counts / 3 hour pan counts / Comb Count Day 1 / # Live Fleas Removed / 4 hour pan counts / 6 hour pan counts / Efficacy, Comb Count Day 2 (reinfested) / Efficacy, Comb Count Day 5 (reinfested) / Comb Count Day 2 (reinfested) / Comb Count Day 5 (reinfested) / Efficacy, Comb Count Day 1 / Average 1 hour pan counts / Average 3 hour pan counts: dogs; for Mean Efficacy / Efficacy, Comb Count Day 2 (reinfested) / Efficacy, Comb Count Day 5 (reinfested) / Efficacy, Comb Count Day 1: fleas
# Experimental: Flea Species: Ctenocephalides felis
# Number: ˜100 unfed adults per dog per infestation with a sex ratio of ˜50/50
# (§1) Species/Strain/Source: Dog/beagles/Stillmeadow, Inc. dog colony
# (§2) Body weights were recorded during the pretest period. Six dogs were selected for study, weighed and randomly assigned to two groups of three and infested with either 100 fleas or 50 ticks. For the flea study whose results are shown in Table 3, repeat 100 flea infestations were performed on Days 2 and 5, without additional dosing. For all studies, the Group I dogs served as untreated controls. All animals except those in Group II of the study whose results are reported in Table 1 were dosed orally with the test article in gelatin capsules. The Group II, Table 1 animals received 5 mg of imidacloprid active in a chewable drug delivery vehicle.
# (§3) For blood collections, drawn blood was collected into lavender top Vacutainer® tubes. The tubes were centrifuged and plasma was drawn off and frozen at approximately −20° C. pending possible future shipment to the sponsor for analysis of levels of test article in the plasma. Comb and pan counts were conducted as noted in the Tables, following dosing. The number of live fleas and ticks removed during the comb counts was recorded as were, where noted in the Tables, dead tick counts.
# [4] = test system: Rhipicephalus sanguineus; experiment: Tick infestation on dogs, oral dosing, tick counts; format: in vivo; details: for Attached Dead Day 2 / Dead Attached Day 6 / Dead Free Day 6 / Live Attached Day 6 / Live Free Day 6 / Ticks Removed Day 2 / Mean Efficacy / Efficacy / Dead Ticks / Live Ticks / Comb Count Day 3 Dead / Comb Count Day 3 Live / Hand Count Day 2: dogs; for Mean Efficacy / Efficacy / Comb Count Day 3 Dead / Comb Count Day 3 Live / Hand Count Day 2: ticks; for Efficacy: Day 6
# Experimental: Tick Species: Rhipicephalus sanguineus
# Number: ˜50 unfed adults per dog per infestation (˜25 male and ˜25 females)
# as §1, §2, §3
# [5] = oral 0.5 mg/kg, individual animals, 0.5 mg/kg
# [6] = oral 1.0 mg/kg, individual animals, 1 mg/kg
# [7] = oral 3.0 mg/kg single dose, group Mean
# [8] = oral 3.0 mg/kg single dose, individual animals, 3 mg/kg
# [9] = oral 3.0 mg/kg, individual animals, 3 mg/kg
# [10] = oral 6.0 mg/kg single dose, group Mean
# [11] = oral 6.0 mg/kg, individual animals, 6 mg/kg
# [12] = oral 10.0 mg/kg single dose, group Mean
# [13] = oral 10.0 mg/kg, individual animals, 10 mg/kg
# [14] = oral 3 mg/kg, individual animals, 3 mg/kg
# [15] = oral 10 mg/kg, individual animals, 10 mg/kg
# [16] = oral 15 mg/kg, Day 1, group Mean
# [17] = oral 15 mg/kg, Day 1, individual animals, 15 mg/kg
# [18] = oral 22 mg/kg, Day 1, group Mean
# [19] = oral 22 mg/kg, Day 1, individual animals, 22 mg/kg
# [20] = oral 30 mg/kg, Day 1, group Mean
# [21] = oral 30 mg/kg, Day 1, individual animals, 30 mg/kg
# [22] = oral 30 mg/kg, individual animals, 30 mg/kg
smiles,measurement,setting,value
"N#Cc1nn(-c2c(Cl)cc(C(F)(F)F)cc2Cl)c(N)c1[S+]([O-])C(F)(F)F (centres unmarked) [Fipronil, 5-amino-1-[2,6-dichloro-4-(trifluoromethyl)phenyl]-4-[(trifluoromethyl)sulfinyl]-1H-pyrazole-3-carbonitrile]",emesis,[1],known to cause emesis
"O=[N+]([O-])N=C1NCCN1Cc1ccc(Cl)nc1 [Imidacloprid, 1-[(6-chloro-3-pyridinyl)methyl]-N-nitro-2-imidazolidinimine]",effect on ticks,[2],little or no effect on ticks
same,Mean Efficacy,"[3]; oral 0.25 mg/kg, Day 1",100.0
same,1 hour pan counts,"[3]; oral 0.25 mg/kg, group Mean",0.0
same,3 hour pan counts,"[3]; oral 0.25 mg/kg, group Mean",5.5
same,1 hour pan counts,"[3]; oral 0.25 mg/kg, individual animals",0
same,3 hour pan counts,"[3]; oral 0.25 mg/kg, individual animals, 0.25 mg/kg",2 and 9
same,Comb Count Day 1,"[3]; oral 0.25 mg/kg, live fleas, group Mean",0.0
same,Comb Count Day 1,"[3]; oral 0.25 mg/kg, live fleas, individual animals",0
same,# Live Fleas Removed,"[3]; oral 0.5 mg/kg, column after 4 hour pan counts, group Mean",22.7
same,# Live Fleas Removed,"[3]; oral 0.5 mg/kg, column after 4 hour pan counts, individual animals, 0.5 mg/kg",31 and 2 and 35
same,# Live Fleas Removed,"[3]; oral 0.5 mg/kg, column after 6 hour pan counts, group Mean",0.0
same,# Live Fleas Removed,"[3]; oral 0.5 mg/kg, column after 6 hour pan counts, individual animals",0
same,Mean Efficacy,[3]; oral 0.5 mg/kg,100.0
same,4 hour pan counts,"[3]; oral 0.5 mg/kg, group Mean",0.0
same,6 hour pan counts,"[3]; oral 0.5 mg/kg, group Mean",39.7
same,4 hour pan counts,[3]; [5],5 and 45 and 15
same,6 hour pan counts,[3]; [5],39 and 33 and 47
same,# Live Fleas Removed,"[3]; oral 1.0 mg/kg, column after 4 hour pan counts, group Mean",9.0
same,# Live Fleas Removed,"[3]; oral 1.0 mg/kg, column after 4 hour pan counts, individual animals, 1 mg/kg",4 and 12 and 11
same,# Live Fleas Removed,"[3]; oral 1.0 mg/kg, column after 6 hour pan counts, group Mean",0.0
same,# Live Fleas Removed,"[3]; oral 1.0 mg/kg, column after 6 hour pan counts, individual animals",0
same,Mean Efficacy,[3]; oral 1.0 mg/kg,100.0
same,4 hour pan counts,"[3]; oral 1.0 mg/kg, group Mean",41.7
same,6 hour pan counts,"[3]; oral 1.0 mg/kg, group Mean",44.0
same,4 hour pan counts,[3]; [6],44 and 41 and 40
same,6 hour pan counts,[3]; [6],35 and 44 and 53
same,"Efficacy, Comb Count Day 2 (reinfested)",[3]; oral 3.0 mg/kg single dose,68.1
same,"Efficacy, Comb Count Day 5 (reinfested)",[3]; oral 3.0 mg/kg single dose,42.1
same,Comb Count Day 2 (reinfested),[3]; [7],22.3
same,Comb Count Day 5 (reinfested),[3]; [7],25.3
same,Comb Count Day 2 (reinfested),[3]; [8],15 and 40 and 12
same,Comb Count Day 5 (reinfested),[3]; [8],32 and 80 and 42
same,"Efficacy, Comb Count Day 1",[3]; oral 3.0 mg/kg,100.0
same,Average 1 hour pan counts,"[3]; oral 3.0 mg/kg, group Mean",1.3
same,Average 3 hour pan counts,"[3]; oral 3.0 mg/kg, group Mean",9.0
same,Comb Count Day 1,"[3]; oral 3.0 mg/kg, group Mean",0.0
same,Comb Count Day 1,"[3]; oral 3.0 mg/kg, individual animals",0
same,Average 1 hour pan counts,[3]; [9],2 and 1 (2×)
same,Average 3 hour pan counts,[3]; [9],7 and 9 and 11
same,"Efficacy, Comb Count Day 2 (reinfested)",[3]; oral 6.0 mg/kg single dose,100.0
same,"Efficacy, Comb Count Day 5 (reinfested)",[3]; oral 6.0 mg/kg single dose,79.3
same,Comb Count Day 2 (reinfested),[3]; [10],0.0
same,Comb Count Day 5 (reinfested),[3]; [10],12.1
same,Comb Count Day 2 (reinfested),"[3]; oral 6.0 mg/kg single dose, individual animals",0
same,Comb Count Day 5 (reinfested),"[3]; oral 6.0 mg/kg single dose, individual animals, 6 mg/kg",7 and 17 and 31
same,"Efficacy, Comb Count Day 1",[3]; oral 6.0 mg/kg,100.0
same,Average 1 hour pan counts,"[3]; oral 6.0 mg/kg, group Mean",7.6
same,Average 3 hour pan counts,"[3]; oral 6.0 mg/kg, group Mean",19.6
same,Comb Count Day 1,"[3]; oral 6.0 mg/kg, group Mean",0.0
same,Comb Count Day 1,"[3]; oral 6.0 mg/kg, individual animals",0
same,Average 1 hour pan counts,[3]; [11],5 and 6 and 12
same,Average 3 hour pan counts,[3]; [11],13 and 22 and 27
same,"Efficacy, Comb Count Day 2 (reinfested)",[3]; oral 10.0 mg/kg single dose,100.0
same,"Efficacy, Comb Count Day 5 (reinfested)",[3]; oral 10.0 mg/kg single dose,97.7
same,Comb Count Day 2 (reinfested),[3]; [12],0.0
same,Comb Count Day 5 (reinfested),[3]; [12],2.0
same,Comb Count Day 2 (reinfested),"[3]; oral 10.0 mg/kg single dose, individual animals",0
same,Comb Count Day 5 (reinfested),"[3]; oral 10.0 mg/kg single dose, individual animals, 10 mg/kg",0 and 5 and 1
same,"Efficacy, Comb Count Day 1",[3]; oral 10.0 mg/kg,100.0
same,Average 1 hour pan counts,"[3]; oral 10.0 mg/kg, group Mean",11.3
same,Average 3 hour pan counts,"[3]; oral 10.0 mg/kg, group Mean",19.0
same,Comb Count Day 1,"[3]; oral 10.0 mg/kg, group Mean",0.0
same,Comb Count Day 1,"[3]; oral 10.0 mg/kg, individual animals",0
same,Average 1 hour pan counts,[3]; [13],10 and 16 and 8
same,Average 3 hour pan counts,[3]; [13],14 and 25 and 18
same,efficacious against pre-existing C. felis infestations,[3]; orally dosed at a rate as low as 0.25 mg/kg,100%
same,effective against a flea infestation on treated animals,"[3]; single oral dose 0.25 mg/kg, within as little as an hour of administration",100%
same,Attached Dead Day 2,"[4]; oral 3 mg/kg, group Mean",1
same,Dead Attached Day 6,"[4]; oral 3 mg/kg, group Mean",0
same,Dead Free Day 6,"[4]; oral 3 mg/kg, group Mean",0.0
same,Live Attached Day 6,"[4]; oral 3 mg/kg, group Mean",8
same,Live Free Day 6,"[4]; oral 3 mg/kg, group Mean",0
same,Ticks Removed Day 2,"[4]; oral 3 mg/kg, group Mean",18
same,Dead Free Day 6,"[4]; oral 3 mg/kg, individual animals",0
same,Attached Dead Day 2,[4]; [14],1 (2×) and 0
same,Dead Attached Day 6,[4]; [14],2 (2×) and 0
same,Live Attached Day 6,[4]; [14],6 and 4 and 13
same,Live Free Day 6,[4]; [14],1 and 0 (2×)
same,Ticks Removed Day 2,[4]; [14],17 and 8 and 28
same,Mean Efficacy,"[4]; oral 3 mg/kg, Day 2",15.9
same,Efficacy,[4]; oral 3 mg/kg,61.0
same,Attached Dead Day 2,"[4]; oral 10 mg/kg, group Mean",3
same,Dead Attached Day 6,"[4]; oral 10 mg/kg, group Mean",0
same,Dead Free Day 6,"[4]; oral 10 mg/kg, group Mean",0
same,Live Attached Day 6,"[4]; oral 10 mg/kg, group Mean",17
same,Live Free Day 6,"[4]; oral 10 mg/kg, group Mean",0
same,Ticks Removed Day 2,"[4]; oral 10 mg/kg, group Mean",20
same,Dead Free Day 6,"[4]; oral 10 mg/kg, individual animals",0
same,Attached Dead Day 2,[4]; [15],2 and 0 and 6
same,Dead Attached Day 6,[4]; [15],1 and 0 (2×)
same,Live Attached Day 6,[4]; [15],14 and 8 and 28
same,Live Free Day 6,[4]; [15],1 and 0 (2×)
same,Ticks Removed Day 2,[4]; [15],16 and 22 and 23
same,Mean Efficacy,"[4]; oral 10 mg/kg, Day 2",3.2
same,Efficacy,[4]; oral 10 mg/kg,15.3
same,Dead Ticks,[4]; [16],1
same,Live Ticks,[4]; [16],15
same,Dead Ticks,[4]; [17],0 and 3 and 1
same,Live Ticks,[4]; [17],33 and 2 and 10
same,Mean Efficacy,"[4]; oral 15 mg/kg, Day 1",48.9
same,Dead Ticks,[4]; [18],1
same,Live Ticks,[4]; [18],9
same,Dead Ticks,[4]; [19],2 and 1 and 0
same,Live Ticks,[4]; [19],3 and 12 and 13
same,Mean Efficacy,"[4]; oral 22 mg/kg, Day 1",68.2
same,Dead Ticks,[4]; [20],2
same,Live Ticks,[4]; [20],11
same,Dead Ticks,[4]; [21],7 and 0 (2×)
same,Live Ticks,[4]; [21],10 and 12 and 11
same,Mean Efficacy,"[4]; oral 30 mg/kg, Day 1",62.5
same,Mean Efficacy,"[4]; oral 30 mg/kg, Day 3",79.5
same,Comb Count Day 3 Dead,"[4]; oral 30 mg/kg, group Mean",1
same,Comb Count Day 3 Live,"[4]; oral 30 mg/kg, group Mean",5
same,Hand Count Day 2,"[4]; oral 30 mg/kg, group Mean",9
same,Comb Count Day 3 Dead,[4]; [22],0 (2×) and 2
same,Comb Count Day 3 Live,[4]; [22],6 and 5 and 4
same,Hand Count Day 2,[4]; [22],8 and 13 and 7
same,effective against a tick infestation on treated animals,"[4]; single oral dose 3 mg/kg, within as little as 24-48 hours of administration",at least 60%
